From patent publication US12077503B2, “Substituted cyclic amides and their use as herbicides” (FMC CORPORATION, priority 2015, dated 2024)

What was measured:
Type in all cases: in vivo
[1] = test system: ivy-leaved morning glory (Ipomoea hederacea); assay: Test G Post-Emergence Protocol; conditions: Ipomoea, post-emergence, 312 h, read-out: Morningglory, Ivy-leaved damage rating; for pest or weed control at 15.625 g/ha: 15.625 g ai/ha, evaluated after 13 days (100=total damage to plant; 0=no damage to plant); for pest or weed control at 62.5 g/ha: 62.5 g ai/ha; for pest or weed control at 62.5 g/ha / pest or weed control at 250 g/ha: evaluated after 13 days, 100=total damage to plant, 0=no damage to plant; for pest or weed control at 250 g/ha: 250 g ai/ha
In short: (§1)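 Eight days post-sowing, plants received a spray of test compound (acetone/water 50:50, 0.5% Tween 20) at 15.625, 62.5 or 250 g/ha. Glasshouse regime thereafter: 24/16 °C, 14 h light, 65% humidity. Assessment after 13 days on a 0–100 damage scale.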

[2] = test system: barnyardgrass (Echinochloa crus-galli); assay: Test G Post-Emergence Protocol; conditions: Echinochloa crus-galli, post-emergence, 312 h, read-out: Barnyardgrass damage rating; for pest or weed control at 15.625 g/ha: 15.625 g ai/ha, evaluated after 13 days (100=total damage to plant; 0=no damage to plant); for pest or weed control at 62.5 g/ha: 62.5 g ai/ha; for pest or weed control at 62.5 g/ha / pest or weed control at 250 g/ha: evaluated after 13 days, 100=total damage to plant, 0=no damage to plant; for pest or weed control at 250 g/ha: 250 g ai/ha
In short: as §1

[3] = test system: velvetleaf (Abutilon theophrasti); assay: Test G Post-Emergence Protocol; conditions: Abutilon theophrasti, post-emergence, 312 h, read-out: Velvetleaf damage rating; for pest or weed control at 15.625 g/ha: 15.625 g ai/ha, evaluated after 13 days (100=total damage to plant; 0=no damage to plant); for pest or weed control at 62.5 g/ha: 62.5 g ai/ha; for pest or weed control at 62.5 g/ha / pest or weed control at 250 g/ha: evaluated after 13 days, 100=total damage to plant, 0=no damage to plant; for pest or weed control at 250 g/ha: 250 g ai/ha
In short: as §1

[4] = test system: giant foxtail (Setaria faberi); assay: Test G Post-Emergence Protocol; conditions: Setaria faberi, post-emergence, 312 h, read-out: Foxtail, Giant damage rating; for pest or weed control at 15.625 g/ha: 15.625 g ai/ha, evaluated after 13 days (100=total damage to plant; 0=no damage to plant); for pest or weed control at 62.5 g/ha: 62.5 g ai/ha; for pest or weed control at 62.5 g/ha / pest or weed control at 250 g/ha: evaluated after 13 days, 100=total damage to plant, 0=no damage to plant; for pest or weed control at 250 g/ha: 250 g ai/ha
In short: as §1

[5] = test system: corn (Zea mays); assay: Test G Post-Emergence Protocol; conditions: Zea mays, post-emergence, 312 h, read-out: Corn damage rating; for plant injury at 15.625 g/ha: 15.625 g ai/ha, evaluated after 13 days (100=total damage to plant; 0=no damage to plant); for plant injury at 62.5 g/ha: 62.5 g ai/ha; for plant injury at 62.5 g/ha / plant injury at 250 g/ha: evaluated after 13 days, 100=total damage to plant, 0=no damage to plant; for plant injury at 250 g/ha: 250 g ai/ha
In short: as §1

[6] = test system: redroot pigweed (Amaranthus retroflexus); assay: Test G Post-Emergence Protocol; conditions: Amaranthus retroflexus, post-emergence, 312 h, read-out: Pigweed, Redroot damage rating; for pest or weed control at 15.625 g/ha: 15.625 g ai/ha, evaluated after 13 days (100=total damage to plant; 0=no damage to plant); for pest or weed control at 62.5 g/ha: 62.5 g ai/ha; for pest or weed control at 62.5 g/ha / pest or weed control at 250 g/ha: evaluated after 13 days, 100=total damage to plant, 0=no damage to plant; for pest or weed control at 250 g/ha: 250 g ai/ha
In short: as §1

[7] = test system: ivy-leaved morning glory (Ipomoea hederacea); assay: Test G Pre-Emergence Protocol; conditions: Ipomoea, pre-emergence, 312 h, evaluated after 13 days; for pest or weed control at 15.625 g/ha: 15.625 g ai/ha; for pest or weed control at 15.625 g/ha / pest or weed control at 250 g/ha: read-out: Morningglory, Ivy-leaved damage rating (100=total damage to plant; 0=no damage to plant); for pest or weed control at 62.5 g/ha: 62.5 g ai/ha, 100=total damage to plant, 0=no damage to plant, read-out: Morningglory, Ivy-leaved damage rating; for pest or weed control at 250 g/ha: 250 g ai/ha
In short: (§2)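 Pots of seeds in standard soil were grown for one day in a glasshouse (24/16 °C day/night, 14 h light, 65% humidity), then sprayed with compound in acetone/water 50:50 with 0.5% Tween 20 at 15.625, 62.5 or 250 g/ha. Damage was scored after 13 days on a 0 (none) to 100 (total) scale.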

[8] = test system: barnyardgrass (Echinochloa crus-galli); assay: Test G Pre-Emergence Protocol; conditions: Echinochloa crus-galli, pre-emergence, 312 h, evaluated after 13 days; for pest or weed control at 15.625 g/ha: 15.625 g ai/ha; for pest or weed control at 15.625 g/ha / pest or weed control at 250 g/ha: read-out: Barnyardgrass damage rating (100=total damage to plant; 0=no damage to plant); for pest or weed control at 62.5 g/ha: 62.5 g ai/ha, 100=total damage to plant, 0=no damage to plant, read-out: Barnyardgrass damage rating; for pest or weed control at 250 g/ha: 250 g ai/ha
In short: as §2

[9] = test system: velvetleaf (Abutilon theophrasti); assay: Test G Pre-Emergence Protocol; conditions: Abutilon theophrasti, pre-emergence, 312 h, evaluated after 13 days; for pest or weed control at 15.625 g/ha: 15.625 g ai/ha; for pest or weed control at 15.625 g/ha / pest or weed control at 250 g/ha: read-out: Velvetleaf damage rating (100=total damage to plant; 0=no damage to plant); for pest or weed control at 62.5 g/ha: 62.5 g ai/ha, 100=total damage to plant, 0=no damage to plant, read-out: Velvetleaf damage rating; for pest or weed control at 250 g/ha: 250 g ai/ha
In short: as §2

[10] = test system: giant foxtail (Setaria faberi); assay: Test G Pre-Emergence Protocol; conditions: Setaria faberi, pre-emergence, 312 h, evaluated after 13 days; for pest or weed control at 15.625 g/ha: 15.625 g ai/ha; for pest or weed control at 15.625 g/ha / pest or weed control at 250 g/ha: read-out: Foxtail, Giant damage rating (100=total damage to plant; 0=no damage to plant); for pest or weed control at 62.5 g/ha: 62.5 g ai/ha, 100=total damage to plant, 0=no damage to plant, read-out: Foxtail, Giant damage rating; for pest or weed control at 250 g/ha: 250 g ai/ha
In short: as §2

[11] = test system: corn (Zea mays); assay: Test G Pre-Emergence Protocol; conditions: Zea mays, pre-emergence, 312 h, evaluated after 13 days; for plant injury at 15.625 g/ha: 15.625 g ai/ha; for plant injury at 15.625 g/ha / plant injury at 250 g/ha: read-out: Corn damage rating (100=total damage to plant; 0=no damage to plant); for plant injury at 62.5 g/ha: 62.5 g ai/ha, 100=total damage to plant, 0=no damage to plant, read-out: Corn damage rating; for plant injury at 250 g/ha: 250 g ai/ha
In short: as §2

[12] = test system: redroot pigweed (Amaranthus retroflexus); assay: Test G Pre-Emergence Protocol; conditions: Amaranthus retroflexus, pre-emergence, 312 h, evaluated after 13 days; for pest or weed control at 15.625 g/ha: 15.625 g ai/ha; for pest or weed control at 15.625 g/ha / pest or weed control at 250 g/ha: read-out: Pigweed, Redroot damage rating (100=total damage to plant; 0=no damage to plant); for pest or weed control at 62.5 g/ha: 62.5 g ai/ha, 100=total damage to plant, 0=no damage to plant, read-out: Pigweed, Redroot damage rating; for pest or weed control at 250 g/ha: 250 g ai/ha
In short: as §2

## CN1CC(c2cc(C#N)cc(OC(F)(F)F)c2)C(C(=O)Nc2cccc(F)c2F)C1=O (stereo not drawn) [Compound 1694]
[1]
  pest or weed control at 15.625 g/ha: 0%
  pest or weed control at 62.5 g/ha: 0%
  pest or weed control at 250 g/ha: 0%
[2]
  pest or weed control at 15.625 g/ha: 0%
  pest or weed control at 62.5 g/ha: 0%
  pest or weed control at 250 g/ha: 0%
[3]
  pest or weed control at 15.625 g/ha: 0%
  pest or weed control at 62.5 g/ha: 0%
  pest or weed control at 250 g/ha: 0%
[4]
  pest or weed control at 15.625 g/ha: 0%
  pest or weed control at 62.5 g/ha: 0%
  pest or weed control at 250 g/ha: 0%
[5]
  plant injury at 15.625 g/ha: 0%
  plant injury at 62.5 g/ha: 0%
  plant injury at 250 g/ha: 0%
[6]
  pest or weed control at 15.625 g/ha: 0%
  pest or weed control at 62.5 g/ha: 0%
  pest or weed control at 250 g/ha: 0%
[7]
  pest or weed control at 15.625 g/ha: 0%
  pest or weed control at 62.5 g/ha: 0%
  pest or weed control at 250 g/ha: 0%
[8]
  pest or weed control at 15.625 g/ha: 0%
  pest or weed control at 62.5 g/ha: 0%
  pest or weed control at 250 g/ha: 0%
[9]
  pest or weed control at 15.625 g/ha: 0%
  pest or weed control at 62.5 g/ha: 0%
  pest or weed control at 250 g/ha: 0%
[10]
  pest or weed control at 15.625 g/ha: 0%
  pest or weed control at 62.5 g/ha: 0%
  pest or weed control at 250 g/ha: 0%
[11]
  plant injury at 15.625 g/ha: 0%
  plant injury at 62.5 g/ha: 0%
  plant injury at 250 g/ha: 0%
[12]
  pest or weed control at 15.625 g/ha: 0%
  pest or weed control at 62.5 g/ha: 0%
  pest or weed control at 250 g/ha: 0%

## CCOc1cc(C2CN(C)C(=O)C2C(=O)Nc2cccc(F)c2F)cc(C(F)(F)F)c1 (stereo not drawn) [Compound 1696]
[1]
  pest or weed control at 15.625 g/ha: 20%
  pest or weed control at 62.5 g/ha: 60%
  pest or weed control at 250 g/ha: 60%
[2]
  pest or weed control at 15.625 g/ha: 40%
  pest or weed control at 62.5 g/ha: 70%
  pest or weed control at 250 g/ha: 80%
[3]
  pest or weed control at 15.625 g/ha: 0%
  pest or weed control at 62.5 g/ha: 0%
  pest or weed control at 250 g/ha: 10%
[4]
  pest or weed control at 15.625 g/ha: 70%
  pest or weed control at 62.5 g/ha: 80%
  pest or weed control at 250 g/ha: 80%
[5]
  plant injury at 15.625 g/ha: 50%
  plant injury at 62.5 g/ha: 70%
  plant injury at 250 g/ha: 70%
[6]
  pest or weed control at 15.625 g/ha: 70%
  pest or weed control at 62.5 g/ha: 50%
  pest or weed control at 250 g/ha: 60%
[7]
  pest or weed control at 15.625 g/ha: 10%
  pest or weed control at 62.5 g/ha: 10%
  pest or weed control at 250 g/ha: 20%
[8]
  pest or weed control at 15.625 g/ha: 10%
  pest or weed control at 62.5 g/ha: 70%
  pest or weed control at 250 g/ha: 80%
[9]
  pest or weed control at 15.625 g/ha: 10%
  pest or weed control at 62.5 g/ha: 0%
  pest or weed control at 250 g/ha: 0%
[10]
  pest or weed control at 15.625 g/ha: 60%
  pest or weed control at 62.5 g/ha: 80%
  pest or weed control at 250 g/ha: 90%
[11]
  plant injury at 15.625 g/ha: 0%
  plant injury at 62.5 g/ha: 40%
  plant injury at 250 g/ha: 50%
[12]
  pest or weed control at 15.625 g/ha: 20%
  pest or weed control at 62.5 g/ha: 0%
  pest or weed control at 250 g/ha: 20%

## COc1c(F)cc(C2CN(C)C(=O)C2C(=O)Nc2cccc(F)c2F)cc1F (stereo not drawn) [Compound 1702]
[1]
  pest or weed control at 15.625 g/ha: 10%
  pest or weed control at 62.5 g/ha: 60%
  pest or weed control at 250 g/ha: 70%
[2]
  pest or weed control at 15.625 g/ha: 60%
  pest or weed control at 62.5 g/ha: 70%
  pest or weed control at 250 g/ha: 80%
[3]
  pest or weed control at 15.625 g/ha: 10%
  pest or weed control at 62.5 g/ha: 20%
  pest or weed control at 250 g/ha: 70%
[4]
  pest or weed control at 15.625 g/ha: 70%
  pest or weed control at 62.5 g/ha: 80%
  pest or weed control at 250 g/ha: 80%
[5]
  plant injury at 15.625 g/ha: 20%
  plant injury at 62.5 g/ha: 20%
  plant injury at 250 g/ha: 80%
[6]
  pest or weed control at 15.625 g/ha: 10%
  pest or weed control at 62.5 g/ha: 10%
  pest or weed control at 250 g/ha: 40%
[7]
  pest or weed control at 15.625 g/ha: 0%
  pest or weed control at 62.5 g/ha: 30%
  pest or weed control at 250 g/ha: 40%
[8]
  pest or weed control at 15.625 g/ha: 50%
  pest or weed control at 62.5 g/ha: 70%
  pest or weed control at 250 g/ha: 90%
[9]
  pest or weed control at 15.625 g/ha: 0%
  pest or weed control at 62.5 g/ha: 10%
  pest or weed control at 250 g/ha: 70%
[10]
  pest or weed control at 15.625 g/ha: 70%
  pest or weed control at 62.5 g/ha: 80%
  pest or weed control at 250 g/ha: 90%
[11]
  plant injury at 15.625 g/ha: 20%
  plant injury at 62.5 g/ha: 70%
  plant injury at 250 g/ha: 90%
[12]
  pest or weed control at 15.625 g/ha: 0%
  pest or weed control at 62.5 g/ha: 0%
  pest or weed control at 250 g/ha: 50%
